In general, IC50 refers to the concentration at which inhibition is half-maximal. A high value points to weaker potency in that assay.

≈ marks a conversion by molar mass, not a printed value.

Here are results for 15 compounds from ChEMBL document CHEMBL1159362, “New cytotoxic indole alkaloids from Tabernaemontana calcarea from the Madagascar rainforest” (J Nat Prod, 2003).

For this assay, the system named is A2780. In words: Cytotoxicity against human A2780 cells. Type of assay: functional, cell-based.
In turn, `CC[C@H]1C[C@H]2C[C@H]3c4[nH]c5ccc(OC)cc5c4CCN(C2)[C@@H]13` [IBOGAINE] gave an IC50 of 10.2 µg/mL (≈ 32.9 µM).

Regarding `CC[C@H]1C[C@@H]2CN3CCc4c([nH]c5ccc(OC)cc45)[C@](C(=O)OC)(C2)[C@H]13` [VOACANGINE], the IC50 came out at 10.4 µg/mL (≈ 28.2 µM).

In turn, `COC(=O)[C@@]12C[C@@H]3C[C@H]([C@@H](C)O)[C@@H]1N(CCc1c2[nH]c2ccc(OC)cc12)C3=O` returned an IC50 of 6.8 µg/mL (≈ 17.1 µM). Against the preceding compound, the IC50 is about 1.5-fold lower.

`COC(=O)[C@@]12C[C@@H]3C[C@H]([C@@H](C)O)[C@@H]1N(CCc1c2[nH]c2ccc(OC)cc12)C3` [19(R)-HEYNEANINE] had an IC50 of 4 µg/mL (≈ 10.4 µM).

With `CC[C@H]1C[C@@H]2CN3CCc4c([nH]c5ccccc45)[C@](C(=O)OC)(C2)[C@H]13` [CORONARIDINE], the IC50 worked out at 9.9 µg/mL (≈ 29.3 µM).

`COC(=O)[C@@]12C[C@@H]3C[C@H]([C@H](C)O)[C@@H]1N(CCc1c2[nH]c2ccc(OC)cc12)C3` [VOACRISTINE] returned an IC50 of 11 µg/mL (≈ 28.6 µM).

In turn, `CC[C@H]1C[C@H]2C[C@H]3c4[nH]c5cc(OC)ccc5c4CCN(C2O)[C@@H]13` (mixture of isomers) yielded an IC50 of 7.9 µg/mL.

On to `CC[C@H]1C[C@H]2C[C@H]3c4[nH]c5ccccc5c4CCN(C2)[C@@H]13` [IBOGAMINE], for which the IC50 was found to be 3.5 µg/mL (≈ 12.5 µM).

`COC(=O)[C@@]12C[C@@H]3C[C@H]([C@@H](C)O)[C@@H]1N(CC[C@]1(O)C2=Nc2ccc(OC)cc21)C3` gave an IC50 of 10.8 µg/mL (≈ 27 µM).

Take `CC[C@H]1C[C@@H]2CN3CCc4c([nH]c5cc(OC)ccc45)[C@](C(=O)OC)(C2)[C@H]13` [ISOVOACANGINE]: inhibition was half-maximal at 9.4 µg/mL (≈ 25.5 µM) (IC50).

In turn, `CC[C@H]1C[C@@H]2CN3CCc4c([nH]c5cc(O)ccc45)[C@](C(=O)OC)(C2)[C@H]13` returned an IC50 of 4.8 µg/mL (≈ 13.5 µM).

Turning to `COC(=O)[C@@]12C[C@@H]3C[C@H]([C@H](C)O)[C@@H]1N(CCc1c2[nH]c2cc(OC)ccc12)C3` [ISOVOACRISTINE], the concentration for half-maximal inhibition (IC50) stood at 9.6 µg/mL (≈ 25 µM).

`CC[C@H]1C[C@H]2CC3c4[nH]c5cc(OC)ccc5c4CCN(C2)[C@H]31` yielded an IC50 of 4.9 µg/mL (≈ 15.8 µM).

As for `C[C@@H](O)[C@@H]1C[C@H]2C[C@H]3c4[nH]c5ccccc5c4CCN(C2)[C@@H]13`, the IC50 stood at 8.9 µg/mL (≈ 30 µM).

As for `C[C@H](O)[C@@H]1C[C@H]2C[C@H]3c4[nH]c5ccccc5c4CCN(C2)[C@@H]13` [HEYNEANINE], half-maximal inhibition (IC50) required 10.7 µg/mL (≈ 36.1 µM).
